Measured values from US11802120B2, “Fused cyclic urea derivatives as CRHR2 antagonist” (RaQualia Pharma Inc., priority 2018, dated 2023).

Target: T1, human CRHR2-alpha (Homo sapiens, UniProt Q13324)
T1 sequence (Q13324 1-411): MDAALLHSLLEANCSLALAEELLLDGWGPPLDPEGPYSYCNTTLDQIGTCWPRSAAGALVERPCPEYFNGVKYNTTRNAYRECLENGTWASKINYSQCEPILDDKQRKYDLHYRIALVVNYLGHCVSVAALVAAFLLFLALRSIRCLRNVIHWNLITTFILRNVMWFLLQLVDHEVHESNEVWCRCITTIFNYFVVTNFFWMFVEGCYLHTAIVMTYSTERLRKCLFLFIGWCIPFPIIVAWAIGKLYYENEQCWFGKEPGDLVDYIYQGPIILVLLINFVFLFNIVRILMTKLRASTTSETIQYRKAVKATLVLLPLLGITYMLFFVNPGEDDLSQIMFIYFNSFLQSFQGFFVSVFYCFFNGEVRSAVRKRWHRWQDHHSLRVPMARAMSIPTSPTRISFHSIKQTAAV
Test: cAMP functional assay for human CRHR2 (LANCE Ultra cAMP, TR-FRET)
Format: cell-based
Settings: CHO-K1 cells expressing human CRHR2-alpha, agonist human urocortin2 at EC80, cAMP; read-out: IC50 against CRHR2
Summary of the method: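 CHO-K1 cells stably expressing each receptor, serum-starved and cryopreserved, were preincubated with compound 30 min at 25° C in HBSS buffer with 0.5 mM IBMX, pH 7.4, then stimulated 30 min with EC80 agonist (urocortin2 for CRHR2, CRF for CRHR1). cAMP read by TR-FRET; IC50 from percent-inhibition curves.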

Compound	IC50 [nM]
O=C(N[C@H]1CC[C@H](Cn2c(=O)n(-c3ccccc3Cl)c3cnccc32)CC1)c1cc(Cl)cnc1C(F)F [Example 721, 5-chloro-N-((1r,4r)-4-((3-(2-chlorophenyl)-2-oxo-2,3-dihydro-1H-imidazo[4,5-c]pyridin-1-yl)methyl)cyclo-hexyl)-2-(difluoromethyl) nicotinamide]	< 300
COc1ccc(-n2c(=O)n(C[C@H]3CC[C@H](NC(=O)c4cc(Cl)cnc4C(F)F)CC3)c3ncccc32)cc1F [Example 722, 5-chloro-2-(difluoromethyl)-N-((1r,4r)-4-((1-(3-fluoro-4-methoxyphenyl)-2-oxo-1H-imidazo[4,5-b]pyridin-3(2H)-yl)methyl)cyclohexyl) nicotinamide]	< 300
COc1ccc(-n2c(=O)n(C[C@H]3CC[C@H](NC(=O)c4cc(Cl)cnc4C(F)F)CC3)c3cnccc32)cc1F [Example 724, 5-chloro-2-(difluoromethyl)-N-((1r,4r)-4-((1-(3-fluoro-4-methoxyphenyl)-2-oxo-1H-imidazo[4,5-c]pyridin-3(2H)-yl)methyl)cyclohexyl) nicotinamide]	< 300
COc1ccc(F)c(-n2c(=O)n(C[C@H]3CC[C@H](NC(=O)c4cc(Cl)cnc4C(F)F)CC3)c3cccnc32)c1 [Example 725, 5-chloro-2-(difluoromethyl)-N-((1r,4r)-4-((3-(2-fluoro-5-methoxyphenyl)-2-oxo-2,3-dihydro-1H-imidazo[4,5-b]pyridin-1-yl)methyl)cyclo-hexyl)nicotinamide]	< 300
COc1ccc(F)c(-n2c(=O)n(C[C@H]3CC[C@H](NC(=O)c4cc(Cl)cnc4C(F)F)CC3)c3cnccc32)c1 [Example 726, 5-chloro-2-(difluoromethyl)-N-((1r,4r)-4-((1-(2-fluoro-5-methoxyphenyl)-2-oxo-1H-imidazo[4,5-c]pyridin-3(2H)-yl)methyl)cyclohexyl) nicotinamide]	< 300
Cn1ccc2cc(-n3c(=O)n(C[C@H]4CC[C@H](NC(=O)c5cc(Cl)cnc5C(F)F)CC4)c4cccnc43)cnc21 [Example 730, 5-chloro-2-(difluoromethyl)-N-((1r,4r)-4-((3-(1-methyl-1H-pyrrolo[2,3-b]pyridin-5-yl)-2-oxo-2,3-dihydro-1H-imidazo[4,5-b]pyridin-1-yl)methyl)cyclohexyl)nicotinamide]	< 300
Cc1cn(CCO)c2ncc(-n3c(=O)n(C[C@H]4CC[C@H](NC(=O)c5cc(Cl)cnc5C(F)F)CC4)c4ccccc43)cc12 [Example 731, 5-chloro-2-(difluoromethyl)-N-((1r,4r)-4-((3-(1-(2-hydroxyethyl)-3-methyl-1H-pyrrolo[2,3-b]pyridin-5-yl)-2-oxo-2,3-dihydro-1H-benzo[d]imidazol-1-yl)methyl)cyclohexyl)nicotinamide]	< 300
Cn1c(CO)cc2cc(-n3c(=O)n(C[C@H]4CC[C@H](NC(=O)c5cc(Cl)cnc5C(F)F)CC4)c4ccccc43)cnc21 [Example 732, 5-chloro-2-(difluoromethyl)-N-((1r,4r)-4-((3-(2-(hydroxymethyl)-1-methyl-1H-pyrrolo[2,3-b]pyridin-5-yl)-2-oxo-2,3-dihydro-1H-benzo[d]imidazol-1-yl)methyl)cyclohexyl)nicotinamide]	< 300
O=C(N[C@H]1CC[C@H](Cn2c(=O)n(-c3ccc(-c4ncc[nH]4)nc3)c3ccccc32)CC1)c1cc(Cl)cnc1C(F)F [Example 733, N-((1r,4r)-4-((3-(6-(1H-imidazol-2-yl)pyridin-3-yl)-2-oxo-2,3-dihydro-1H-benzo[d]imidazol-1-yl)methyl)cyclohexyl)-5-chloro-2-(difluoromethyl)nicotinamide]	< 300
CN1CCN(c2ccc(-n3c(=O)n(C[C@H]4CC[C@H](NC(=O)c5cc(Cl)cnc5C(F)F)CC4)c4ccccc43)nc2)C1=O [Example 735, 5-chloro-2-(difluoromethyl)-N-((1r,4r)-4-((3-(5-(3-methyl-2-oxoimidazolidin-1-yl)pyridin-2-yl)-2-oxo-2,3-dihydro-1H-benzo[d]imidazol-1-yl)methyl)cyclohexyl) nicotinamide]	< 300
